From ChEMBL document CHEMBL5131570, “Discovery of Potent Small-Molecule USP8 Inhibitors for the Treatment of Breast Cancer through Regulating ERα Expression” (J Med Chem, 2022)
Calls of active or inactive are those of the source. The rule behind the calls is not given here.

What was measured:
[1] = test system: MCF7; assay: Induction of apoptosis in human MCF7 cells assessed as increase in apoptotic cells at 0.2 uM incubated for 12 hrs by AnnexinV-FITC/propidium iodide staining based flow cytometry relative to control (reference value: 2.00 %); type: functional
[2] = target: T1, Ubiquitin carboxyl-terminal hydrolase 8 (Homo sapiens, UniProt P40818); assay: Inhibition of N-terminal His6-tagged USP8 (unknown origin) catalytic domain (734 to 1110 residues) expressed in Escherichia coli BL21 (DE3) cells assessed as deubiquitinating activity using ubiquitin-rhodamine -110 as substrate incubated for 30 mins followed by substrate addition measured after 30 mins by ubiquitin-rhodamine-110 based fluorometric assay
T1 sequence (P40818 whole entry): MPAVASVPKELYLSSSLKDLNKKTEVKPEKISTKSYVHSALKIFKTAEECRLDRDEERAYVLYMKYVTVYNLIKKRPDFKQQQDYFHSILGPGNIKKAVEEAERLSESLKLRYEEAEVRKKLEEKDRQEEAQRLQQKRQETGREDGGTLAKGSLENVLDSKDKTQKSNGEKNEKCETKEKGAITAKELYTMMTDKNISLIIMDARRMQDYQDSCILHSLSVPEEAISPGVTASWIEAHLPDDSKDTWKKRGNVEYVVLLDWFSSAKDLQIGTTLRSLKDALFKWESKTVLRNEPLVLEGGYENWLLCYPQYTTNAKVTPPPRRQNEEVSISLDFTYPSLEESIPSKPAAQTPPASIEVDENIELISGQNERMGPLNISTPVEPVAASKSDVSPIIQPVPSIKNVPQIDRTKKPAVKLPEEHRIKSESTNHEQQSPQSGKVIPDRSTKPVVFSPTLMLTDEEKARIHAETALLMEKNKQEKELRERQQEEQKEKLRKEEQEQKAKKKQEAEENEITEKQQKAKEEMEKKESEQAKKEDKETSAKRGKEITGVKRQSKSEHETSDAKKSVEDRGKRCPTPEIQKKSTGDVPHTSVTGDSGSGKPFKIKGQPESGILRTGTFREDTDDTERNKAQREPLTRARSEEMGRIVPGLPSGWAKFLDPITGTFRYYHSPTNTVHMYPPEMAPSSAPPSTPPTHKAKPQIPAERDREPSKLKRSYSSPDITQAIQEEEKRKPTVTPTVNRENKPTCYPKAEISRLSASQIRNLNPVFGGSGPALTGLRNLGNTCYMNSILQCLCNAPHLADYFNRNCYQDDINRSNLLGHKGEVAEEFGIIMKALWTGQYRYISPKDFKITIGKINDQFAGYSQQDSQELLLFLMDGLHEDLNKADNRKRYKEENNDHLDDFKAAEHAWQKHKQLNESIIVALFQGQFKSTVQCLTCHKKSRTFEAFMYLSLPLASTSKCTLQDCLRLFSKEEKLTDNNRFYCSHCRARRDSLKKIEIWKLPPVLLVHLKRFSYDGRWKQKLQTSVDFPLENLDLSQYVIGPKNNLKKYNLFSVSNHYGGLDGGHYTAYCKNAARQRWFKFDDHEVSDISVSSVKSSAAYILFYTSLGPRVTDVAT

[3] = target: T2, Ubiquitin carboxyl-terminal hydrolase 8 (Homo sapiens) (UniProt P40818); assay: Inhibition of N-terminal His6-tagged USP8 catalytic domain (734 to 1110 residues) in HEK293T cell lysates up to 100 uM in presence of HA-Ub-VS probe by USP8 antibody based Western blotting assay; type: subcellular
T2 sequence (whole entry): T1 sequence (P40818 whole entry)

[4] = target: T2, Ubiquitin carboxyl-terminal hydrolase 8 (Homo sapiens); assay: Inhibition of N-terminal His6-tagged USP8 catalytic domain (734 to 1110 residues) in HEK293T cell lysates up to 100 uM in presence of HA-Ub-VS probe by HA antibody based Western blotting assay; type: subcellular
[5] = target: T2, Ubiquitin carboxyl-terminal hydrolase 8 (Homo sapiens); assay: Inhibition of N-terminal His6-tagged USP8 catalytic domain (734 to 1110 residues) in HEK293T intact cells up to 100 uM in presence of HA-Ub-VS probe by HA antibody based Western blotting assay; type: cell-based
[6] = test system: MCF7; assay: Antiproliferative activity against human MCF7 cells assessed as reduction in colony formation at 3 uM incubated for 7 days by crystal violet staining based colony formation assay; type: functional, cell-based; conditions: time 7.0 day
[7] = test system: MCF7; assay: Induction of apoptosis in human MCF7 cells assessed as increase in apoptotic cells at 1 uM incubated for 12 hrs by AnnexinV-FITC/propidium iodide staining based flow cytometry relative to control (reference value: 2.00 %); type: functional
[8] = test system: MCF7; assay: Induction of apoptosis in human MCF7 cells assessed as increase in apoptotic cells at 5 uM incubated for 12 hrs by AnnexinV-FITC/propidium iodide staining based flow cytometry relative to control (reference value: 2.00 %); type: functional
[9] = test system: MCF7; assay: Induction of apoptosis in human MCF7 cells assessed as reduction in ErbB2 expression level up to 5 uM incubated for 24 hrs by Western blotting analysis; type: functional, cell-based
[10] = test system: MCF7; assay: Downregulation of ERalpha expression in human MCF7 cells assessed as protein stability by measuring reduction in half life measured up to 24 hrs in presence of cycloheximide by Western blotting analysis; type: functional, cell-based
[11] = test system: MCF7; assay: Antitumor activity against human MCF7 cells xenografted in BALB/c mouse assessed as inhibition of tumor growth at 20 mg/kg, ip administered via gavage every other day for 14 days; type: functional, organism-based; conditions: time 14.0 day
[12] = test system: MCF7; assay: Antitumor activity against human MCF7 cells xenografted in BALB/c mouse assessed as reduction of EGFR phosphorylation in tumor tissue at 5 to 20 mg/kg, ip administered via gavage every other day for 14 days by immunohistochemistry analysis; type: functional, organism-based; conditions: dose 5-20 mg/kg, time 14.0 day
[13] = test system: MCF7; assay: Antitumor activity against human MCF7 cells xenografted in BALB/c mouse assessed as reduction of ErbB2 phosphorylation in tumor tissue at 5 to 20 mg/kg, ip administered via gavage every other day for 14 days by immunohistochemistry analysis; type: functional, organism-based; conditions: dose 5-20 mg/kg, time 14.0 day
[14] = test system: MCF7; assay: Antitumor activity against human MCF7 cells xenografted in BALB/c mouse assessed as reduction of ErbB3 phosphorylation in tumor tissue at 5 to 20 mg/kg, ip administered via gavage every other day for 14 days by immunohistochemistry analysis; type: functional, organism-based; conditions: dose 5-20 mg/kg, time 14.0 day
[15] = Toxicity in BALB/c mouse xenografted with human MCF7 cells assessed as effect on heart at 5 to 20 mg/kg, […] every other day measured after 14 days by hematoxylin and eosin staining based analysis; type: organism-based; conditions: in vivo, 336 h, dose 5-20 mg/kg, time 14 day
[16] = Toxicity in BALB/c mouse xenografted with human MCF7 cells assessed as effect on spleen at 5 to 20 mg/kg, […] every other day measured after 14 days by hematoxylin and eosin staining based analysis; type: organism-based; conditions: in vivo, 336 h, dose 5-20 mg/kg, time 14 day
[17] = Toxicity in BALB/c mouse xenografted with human MCF7 cells assessed as effect on kidney at 5 to 20 mg/kg, […] every other day measured after 14 days by hematoxylin and eosin staining based analysis; type: organism-based; conditions: in vivo, 336 h, dose 5-20 mg/kg, time 14 day
[18] = Toxicity in BALB/c mouse xenografted with human MCF7 cells assessed as effect on aspartate aminotransferase level at 5 to 20 mg/kg, […] every other day measured after 14 days; type: organism-based; conditions: in vivo, 336 h, dose 5-20 mg/kg, time 14 day
[19] = Toxicity in BALB/c mouse xenografted with human MCF7 cells assessed as effect on alanine aminotransferase level at 5 to 20 mg/kg, […] every other day measured after 14 days; type: organism-based; conditions: in vivo, 336 h, dose 5-20 mg/kg, time 14 day

Structure (SMILES): Cc1n[nH]c(C)c1Oc1c(O)cc(O)c2c(=O)cc(-c3ccc(N4CCN(c5ccccn5)CC4)cc3)oc12
- Activity [1]: 1.9%
- IC50 [2]: 1200 nM
- inhibition [3]: Active
- inhibition [4]: Active
- inhibition [5]: Active
- Activity [6]: Active
- Activity [7]: 3.45%
- Activity [8]: 14.46%
- Activity [9]: Active
- Activity [10]: Active
- Activity [11]: Active
- Activity [12]: Active
- Activity [13]: Active
- Activity [14]: Active
- Activity [15]: Non-Toxic
- Activity [16]: Non-Toxic
- Activity [17]: Non-Toxic
- Activity [18]: Non-Toxic
- Activity [19]: Non-Toxic
